Results reported in patent US10377781B2, “Alkylidene phosphonate esters as p-glycoprotein inducers” (Council of Scientific & Industrial Research, priority 2014, dated 2019).
Converted amounts (≈) assume the structure as drawn. “Also recorded” adds a separate entry of the source. Read-outs that look alike come from different tables or passages of the source.

Key:
[1] = system: p-glycoprotein expression in LS-180 cells; test: Western blot analysis of Pgp expression; assay type: cell-based
Protocol: Protein was measured employing Bio-Rad protein assay kit using bovine serum albumin as standard. Proteins aliquots (70 μg) were resolved on SDS-PAGE and then electro transferred to PVDF membrane overnight at 4° C. at 30V. Nonspecific binding was blocked by incubation with 5% non-fat milk in Tris-buffered saline containing 0.1% Tween-20 (TBST) for 1 h at room temperature. The blots were probed with anti-Pgp antibody for 4 h and washed three times with TBST. Blot was then incubated with horseradish peroxidase conjugated antimouse secondary antibody for 1 h, washed again three times with TBST and signals detected using ECL plus chemiluminescence's kit on BioRad ChemiDoc XRS system.

[2] = Thermodynamic equilibrium solubility; assay type: physicochemical; details: for solubility: 25 °C, thermodynamic from solid
Protocol: The compounds were first dissolved in methanol to prepare stock solutions (100 and 1000 μg/mL). Different concentrations of stock solutions were pipetted into the 96-well plates and the solvent was evaporated to ensure that solid drug was present in the beginning of the experiment. […] The plates were kept overnight for equilibration of drug in medium. Later, the plates were centrifuged at 3000 rpm for 15 min (Jouan centrifuge BR4i). Supernatant (50 μl) was pipetted into UV 96-well plates (Corning® 96 Well Clear Flat Bottom UV-Transparent Microplate) for analyses with plate reader (SpectraMax Plus384) at λmax of 350 nm. The analyses were performed in triplicate for each compound. The solubility curve of concentration (ng/mL) vs absorbance was plotted to find out saturation point and the corresponding concentration was noted.

[3] = system: P-glycoprotein (Pgp) in LS-180 cells; test: Pgp-induction assay, rhodamine123 (Rh123) cell exclusion method; assay type: cell-based; details: for EC50: LS180 cells treated 48 h, Rh123 fluorescence vs concentration
Protocol: All synthesized compounds were screened for their ability to induce Pgp using rhodamine123 (Rh123) cell exclusion method. In this method, the Pgp function was evaluated in terms of rhodamine 123 (Rh123) accumulations and efflux. Briefly, the protocol used is as follows: Colorectal LS-180 cells [obtained from ECACC (European Collection of Cell Cultures) catalogue number: 87021202; passage number 52] were seeded at a density of 2×10^4 per well of 96 well plate and were allowed to grow for next 24 h. Cells were further incubated with the test compounds, and were diluted to a final concentration of 100 nM and rifampicin (standard) to a final concentration of 10 μM in complete media for 48 h. The final concentration of DMSO was kept at 0.1%. Drugs were removed and cells were incubated with HANKS buffer for 40 minutes before further incubation with HANKS buffer (containing 10 μM of Rh123 as a Pgp substrate) for 90 minutes. At the end of Rh123 treatment cells were washed four times with cold PBS followed by cell lysis for 1 h by using 200 μl of lysis buffer (0.1% Triton X-100 and 0.2 N NaOH). A total of 100 μl of lysate was used for reading fluorescence of Rh123 at 485 nm/529 nm. Samples were normalized by dividing fluorescence of each sample with total protein present in the lysate. For EC50 determination, different concentrations of compound were used to treat LS180 cells for 48 h. The EC50 value was determined by plotting fluoroscence of Rh123 against concentration of compound.

HMG-Co A reductase = details: HepG2 (hepatocellular carcinoma) cells; read-out: IC50, reduction of HMG-Co A reductase activity; cited from earlier work
mouse PXR = target: T1, mouse PXR (Mus musculus, UniProt O54915); details: cited from earlier work
T1 sequence (O54915 1-431): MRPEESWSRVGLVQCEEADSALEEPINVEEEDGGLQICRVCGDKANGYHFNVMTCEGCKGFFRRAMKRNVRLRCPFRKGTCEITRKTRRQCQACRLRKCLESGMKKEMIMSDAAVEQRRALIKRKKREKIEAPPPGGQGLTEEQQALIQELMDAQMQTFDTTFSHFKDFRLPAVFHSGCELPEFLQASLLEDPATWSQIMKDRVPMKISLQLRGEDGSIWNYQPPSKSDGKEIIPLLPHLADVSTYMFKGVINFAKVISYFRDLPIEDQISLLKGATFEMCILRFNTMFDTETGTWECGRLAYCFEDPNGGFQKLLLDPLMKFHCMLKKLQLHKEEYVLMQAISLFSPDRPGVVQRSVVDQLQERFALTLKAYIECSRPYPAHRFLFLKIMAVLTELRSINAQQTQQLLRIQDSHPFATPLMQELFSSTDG

CYP3A4 = details: rat hepatocytes; cited from earlier work
rat PXR = target: T2, rat PXR (Rattus norvegicus, UniProt Q9R1A7); details: cited from earlier work
T2 sequence (Q9R1A7 1-431): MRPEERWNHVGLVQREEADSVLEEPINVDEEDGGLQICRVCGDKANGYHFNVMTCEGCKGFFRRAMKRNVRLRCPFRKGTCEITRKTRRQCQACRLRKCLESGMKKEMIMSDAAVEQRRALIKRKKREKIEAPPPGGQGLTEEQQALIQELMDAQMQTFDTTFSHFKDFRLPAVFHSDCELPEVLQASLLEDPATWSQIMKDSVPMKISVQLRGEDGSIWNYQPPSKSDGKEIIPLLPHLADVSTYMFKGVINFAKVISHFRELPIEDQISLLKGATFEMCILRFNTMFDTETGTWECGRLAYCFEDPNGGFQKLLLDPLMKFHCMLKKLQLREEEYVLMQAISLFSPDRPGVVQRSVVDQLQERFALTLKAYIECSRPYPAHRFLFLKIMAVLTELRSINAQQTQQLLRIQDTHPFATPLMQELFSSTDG

rabbit PXR = target: T3, rabbit PXR (Oryctolagus cuniculus, UniProt Q9TU02); details: read-out: EC50, activation of rabbit PXR; cited from earlier work
T3 sequence (Q9TU02 1-411): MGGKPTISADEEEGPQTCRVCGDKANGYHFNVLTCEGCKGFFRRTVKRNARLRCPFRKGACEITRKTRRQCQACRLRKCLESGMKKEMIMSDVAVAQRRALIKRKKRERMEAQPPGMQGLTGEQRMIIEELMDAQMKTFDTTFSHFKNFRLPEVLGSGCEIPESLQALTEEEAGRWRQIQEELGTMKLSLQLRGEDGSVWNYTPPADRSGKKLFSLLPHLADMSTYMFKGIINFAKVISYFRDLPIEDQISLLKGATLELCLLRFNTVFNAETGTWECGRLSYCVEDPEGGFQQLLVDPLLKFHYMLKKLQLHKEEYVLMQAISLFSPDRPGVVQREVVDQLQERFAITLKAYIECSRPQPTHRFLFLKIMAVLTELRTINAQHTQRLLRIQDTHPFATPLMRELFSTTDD

SMILES | p-glycoprotein expression (Western blot) [1] | Solubility, PBS ([2]; phosphate buffer saline (PBS)) [µg/mL] | Solubility, SGF ([2]; simulated gastric fluid (SGF)) [µg/mL] | Solubility, SIF ([2]; simulated intestinal fluid (SIF)) [µg/mL] | solubility in words ([2]; water and biological fluids) | Solubility, Water ([2]; water, 25±1° C.) [µg/mL] | EC50 [3] [nM] | Pgp induction as decrease in % intracellular levels of rhodamine 123 ([3]; LS-180 cells, test compounds 100 nM, 48 h) | fold difference of EC50 versus SR12813 (1a) ([3]; Pgp induction EC50, LS180 cells) [fold] | IC50 (HMG-Co A reductase) [nM] | activation of mouse PXR (mouse PXR) | CYP3A4 protein levels (CYP3A4) | solubility ([2]; water, 25±1° C., read-out: Solubility, Water) [µg/mL] | solubility ([2]; phosphate buffer saline (PBS), aqueous buffer, read-out: Solubility, PBS) [µg/mL] | solubility ([2]; simulated gastric fluid (SGF), simulated gastric fluid, read-out: Solubility, SGF) [µg/mL] | solubility ([2]; simulated intestinal fluid (SIF), fassgf or other biorelevant, read-out: Solubility, SIF) [µg/mL] | activation of rat PXR (rat PXR) | EC50 (rabbit PXR) [nM]
CCOP(=O)(OCC)C(=Cc1c2ccccc2cc2ccccc12)P(=O)(OCC)OCC [Compound 1l, Tetraethyl 2-(anthracene-10-yl) ethene-1,1-diyldiphosphonate] | induces p-glycoprotein expression | >1500 | >1500 | >1500 | optimal solubility | 400 (≈ 840 µM) | 0.9 | decreased; also recorded: promising induction of p-glycoprotein | 2 | – | – | – | – | – | – | – | – | –
CCOP(=O)(OCC)C(=Cc1cc(C(C)(C)C)c(O)c(C(C)(C)C)c1)P(=O)(OCC)OCC [Compound 1a] | – | – | – | – | – | – | 2.04 | – | – | 850 | very weak activator | increase CYP3A4 protein levels | 200 (≈ 396 µM) | 200 (≈ 396 µM) | 200 (≈ 396 µM) | 200 (≈ 396 µM) | very weak activator | ~700
